Reference: the supplement of paper PMC4932681

What was measured:
[1] = system: BT-474 Tam1; assay: drug sensitivity score (DSS) (DSS (dimensionless)); higher = more sensitive; extreme values may be limits of the assay; conditions: 4-OH-tamoxifen in medium 1 µM; 72 h
How it was run: (§1)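 Drug sensitivity score, relative IC50 as the curve midpoint, and top-dose inhibition were derived from logistic dose–response fits in the Breeze pipeline. These fits used CellTiter-Glo viability, read on a PHERAstar and normalised to vehicle-only and positive controls. Breast cancer cell lines and resistant derivatives had been incubated for 72 h at 37 °C in 384-well plates holding library drugs at five concentrations spanning a 10 000-fold range. Resistant lines were grown in medium with 1 μM of the selecting drug.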

[2] = system: BT-474 Tam2; assay: as above; conditions: 4-OH-tamoxifen in medium 1 µM; 72 h
How it was run: as §1

[3] = system: BT-474; assay: as above; conditions: 72 h
How it was run: as §1

[4] = system: MCF-7 Tam1; assay: as above; conditions: 4-OH-tamoxifen in medium 1 µM; 72 h
How it was run: as §1

[5] = system: MCF-7; assay: as above; conditions: 72 h
How it was run: as §1

[6] = system: T-47D Tam1; assay: as above; conditions: 4-OH-tamoxifen in medium 1 µM; 72 h
How it was run: as §1

[7] = system: T-47D Tam2; assay: as above; conditions: 4-OH-tamoxifen in medium 1 µM; 72 h
How it was run: as §1

[8] = system: T-47D; assay: as above; conditions: 72 h
How it was run: as §1

[9] = system: ZR-75-1 Tam1; assay: as above; conditions: 4-OH-tamoxifen in medium 1 µM; 72 h
How it was run: as §1

[10] = system: ZR-75-1 Tam2; assay: as above; conditions: 4-OH-tamoxifen in medium 1 µM; 72 h
How it was run: as §1

[11] = system: ZR-75-1; assay: as above; conditions: 72 h
How it was run: as §1

[12] = system: BT-474 Tam1; assay: relative IC50 (midpoint of fitted logistic curve, plateau may be below 50% inhibition; CellTiter-Glo viability); higher = less potent; conditions: 4-OH-tamoxifen in medium 1 µM; 72 h
How it was run: as §1

[13] = system: BT-474 Tam2; assay: as above; conditions: 4-OH-tamoxifen in medium 1 µM; 72 h
How it was run: as §1

[14] = system: BT-474; assay: as above; conditions: 72 h
How it was run: as §1

[15] = system: MCF-7 Tam1; assay: as above; conditions: 4-OH-tamoxifen in medium 1 µM; 72 h
How it was run: as §1

[16] = system: MCF-7; assay: as above; conditions: 72 h
How it was run: as §1

[17] = system: T-47D Tam1; assay: as above; conditions: 4-OH-tamoxifen in medium 1 µM; 72 h
How it was run: as §1

[18] = system: T-47D Tam2; assay: as above; conditions: 4-OH-tamoxifen in medium 1 µM; 72 h
How it was run: as §1

[19] = system: T-47D; assay: as above; conditions: 72 h
How it was run: as §1

[20] = system: ZR-75-1 Tam1; assay: as above; conditions: 4-OH-tamoxifen in medium 1 µM; 72 h
How it was run: as §1

[21] = system: ZR-75-1 Tam2; assay: as above; conditions: 4-OH-tamoxifen in medium 1 µM; 72 h
How it was run: as §1

[22] = system: ZR-75-1; assay: as above; conditions: 72 h
How it was run: as §1

Structure (SMILES) | drug sensitivity score [1] | drug sensitivity score [2] | drug sensitivity score ([3]; 4-OH-tamoxifen in medium 0 µM) | drug sensitivity score ([3]; 4-OH-tamoxifen in medium 1 µM) | drug sensitivity score [4] | drug sensitivity score ([5]; 4-OH-tamoxifen in medium 0 µM) | drug sensitivity score ([5]; 4-OH-tamoxifen in medium 1 µM) | drug sensitivity score [6] | drug sensitivity score [7] | drug sensitivity score ([8]; 4-OH-tamoxifen in medium 0 µM) | drug sensitivity score ([8]; 4-OH-tamoxifen in medium 1 µM) | drug sensitivity score [9] | drug sensitivity score [10] | drug sensitivity score ([11]; 4-OH-tamoxifen in medium 0 µM) | drug sensitivity score ([11]; 4-OH-tamoxifen in medium 1 µM) | relative IC50 [12] [nM] | relative IC50 [13] [nM] | relative IC50 ([14]; 4-OH-tamoxifen in medium 1 µM) [nM] | relative IC50 [15] [nM] | relative IC50 ([16]; 4-OH-tamoxifen in medium 0 µM) [nM] | relative IC50 ([16]; 4-OH-tamoxifen in medium 1 µM) [nM] | relative IC50 [17] [nM] | relative IC50 [18] [nM] | relative IC50 ([19]; 4-OH-tamoxifen in medium 0 µM) [nM] | relative IC50 ([19]; 4-OH-tamoxifen in medium 1 µM) [nM] | relative IC50 [20] [nM] | relative IC50 [21] [nM] | relative IC50 ([22]; 4-OH-tamoxifen in medium 0 µM) [nM] | relative IC50 ([22]; 4-OH-tamoxifen in medium 1 µM) [nM] | relative IC50 ([14]; 4-OH-tamoxifen in medium 0 µM) [nM]
COC(=O)C[C@](O)(CCCC(C)(C)O)C(=O)O[C@@H]1C(OC)=C[C@]23CCCN2CCc2cc4c(cc2[C@H]13)OCO4 [Omacetaxine (Homoharringtonine)] | 4.82 | 6.34 | 6.72 | 6.25 | 16.2 | 25.1 | 26.1 | 16.4 | 10.7 | 17.4 | 11 | 13.8 | 17.8 | 19 | 15.2 | 2990 | 1780 | 1890 | 82.2 | 29 | 16.7 | 93.7 | 419 | 138 | 172 | 84.4 | 92.2 | 37.2 | 46.5 | –
O=C(O)CC[C@H]1CC[C@@](c2cc(F)ccc2F)(S(=O)(=O)c2ccc(Cl)cc2)CC1 [MK-0752] | 0 | 0 | 0 | 0 | 0 | 0 | 0 | 0 | 0 | 0 | 0 | 0 | 0 | 0 | 0 | > 1000 | > 1000 | > 1000 | > 1000 | > 1000 | > 1000 | > 1000 | > 1000 | > 1000 | > 1000 | > 1000 | > 1000 | > 1000 | > 1000 | > 1000
NCC(=O)CCC(=O)O [Aminolevulinic acid] | 0 | 0 | 0 | 0 | 0 | 0 | 0.809 | 0 | 0 | 0 | 0 | 0 | 0 | 0 | 0 | > 10000 | > 10000 | > 10000 | > 10000 | > 10000 | – | > 10000 | > 10000 | > 10000 | > 10000 | > 10000 | > 10000 | > 10000 | > 10000 | > 10000
Clc1ccc(C(c2ccccc2Cl)C(Cl)Cl)cc1 (configuration not stated) [Mitotane] | 0 | 0 | 0 | 0 | 0 | 0 | 0 | 0 | 0 | 0 | 0 | 0 | 0 | 0 | 0 | > 10000 | > 10000 | > 10000 | > 10000 | > 10000 | > 10000 | > 10000 | > 10000 | > 10000 | > 10000 | > 10000 | > 10000 | > 10000 | > 10000 | > 10000
O=P1(NCCCl)OCCCN1CCCl (configuration not stated) [Ifosfamide] | 0 | 0 | 0 | 0 | 0 | 0 | 0.24 | 0 | 0 | 0 | 0 | 0 | 0 | 0 | 0 | > 10000 | > 10000 | > 10000 | > 10000 | > 10000 | – | > 10000 | > 10000 | > 10000 | > 10000 | > 10000 | > 10000 | > 10000 | > 10000 | > 10000
CC(C)n1nc(-c2ccc3oc(N)nc3c2)c2c(N)ncnc21 [INK128] | 13.2 | 7.32 | 5.72 | 9.54 | 7.07 | 18.9 | 13.6 | 16.9 | 8.98 | 15.4 | 8.51 | 15.1 | 17.5 | 16.1 | 13.6 | 20.9 | 30.2 | 47.1 | 11.4 | 7.36 | 7.62 | 2.91 | 7.49 | 11.6 | 11.9 | 4.81 | 6.49 | 6.13 | 6.56 | 27.5
CO[C@H]1/C=C\C=C(/C)C(=O)NC2=CC(=O)C(NCCN(C)C)=C(C[C@@H](C)C[C@H](OC)[C@H](O)[C@@H](C)/C=C(\C)[C@@H]1OC(N)=O)C2=O [Alvespimycin (17-DMAG)] | 16.9 | 17.6 | 12.2 | 19.4 | 4.36 | 12.6 | 8.71 | 1.14 | 3.87 | 3.17 | 3.41 | 3.49 | 5.93 | 3.36 | 6.21 | 15.3 | 14.6 | 8.88 | 48 | 22.5 | 30 | 424 | 196 | 259 | 142 | 95 | 71 | 85.8 | 75.2 | 13.1
NCCCNCCSP(=O)(O)O [Amifostine] | 0 | 0 | 0 | 0 | 0 | 0 | 0 | 0 | 0 | 0 | 0 | 0 | 0 | 0 | 0 | > 10000 | > 10000 | > 10000 | > 10000 | > 10000 | > 10000 | > 10000 | > 10000 | > 10000 | > 10000 | > 10000 | > 10000 | > 10000 | > 10000 | > 10000
COc1ccc(-c2cc3c(C)nc(N)nc3n([C@H]3CC[C@H](OCCO)CC3)c2=O)cn1 | 22.7 | 19.5 | 16.5 | 24.3 | 13.2 | 20.2 | 16.4 | 18.1 | 14.9 | 18.6 | 15.4 | 16.3 | 24 | 19 | 17 | 121 | 175 | 76.6 | 194 | 77.5 | 173 | 188 | 305 | 184 | 332 | 208 | 52.5 | 102 | 102 | 297
CO[C@H](C(=O)[C@@H](O)[C@@H](C)O)[C@@H]1Cc2cc3cc(O[C@H]4C[C@@H](O[C@@H]5C[C@@H](O)[C@H](O)[C@@H](C)O5)[C@H](O)[C@@H](C)O4)c(C)c(O)c3c(O)c2C(=O)[C@H]1O[C@H]1C[C@@H](O[C@@H]2C[C@@H](O)[C@@H](O[C@@H]3C[C@](C)(O)[C@H](O)[C@@H](C)O3)[C@@H](C)O2)[C@H](O)[C@@H](C)O1 [Plicamycin  (Mithramycin A)] | 13.7 | 14.9 | 11.9 | 14.3 | 14.1 | 14.9 | 20.1 | 22 | 17.4 | 18.4 | 13.2 | 22.1 | 23.6 | 21.5 | 19 | 632 | 495 | 542 | 318 | 401 | 150 | 36.3 | 57 | 84.6 | 110 | 58.6 | 64.5 | 45.3 | 66.5 | 357
O=P(O)(O)C(O)(Cn1ccnc1)P(=O)(O)O [Zoledronic acid] | 0 | 0 | 0 | 0 | 0 | 0 | 0 | 0 | 0 | 0 | 0 | 0 | 0 | 0 | 0 | > 10000 | > 10000 | > 10000 | > 10000 | > 10000 | > 10000 | > 10000 | > 10000 | > 10000 | > 10000 | > 10000 | > 10000 | > 10000 | > 10000 | > 10000
C#Cc1cccc(Nc2ncnc3cc(OC)c(OCCCCCCC(=O)NO)cc23)c1 [CUDC-101] | 12.6 | 10.2 | 9.66 | 21.9 | 2.26 | 7.91 | 8.89 | 11.7 | 8.37 | 10.3 | 12.3 | 4.08 | 4.71 | 3.69 | 4.14 | 680 | 1130 | 137 | 3520 | 1720 | 1540 | 656 | 1180 | 1190 | 803 | 1150 | 1740 | 1600 | 1920 | 1190
CC(C)C[C@H](NC(=O)[C@H](CCc1ccccc1)NC(=O)CN1CCOCC1)C(=O)N[C@@H](Cc1ccccc1)C(=O)N[C@@H](CC(C)C)C(=O)[C@@]1(C)CO1 [Carfilzomib] | 27.9 | 20.8 | 14.6 | 28.9 | 12.4 | 17.9 | 21 | 22.7 | 17.1 | 23.1 | 25.8 | 12.8 | 11.8 | 14 | 16.4 | 4.59 | 15.3 | 3.67 | 74.6 | 19.7 | 15.8 | 11.4 | 33.4 | 8.82 | 2.82 | 47.1 | 51.9 | 31.7 | 24.7 | 25.6
COc1cccc2cc(-c3nc([C@H]4CC[C@H](C(=O)O)CC4)n4ncnc(N)c34)[nH]c12 [OSI-027] | 7.62 | 5.03 | 5.02 | 6.48 | 2.71 | 4.23 | 4.31 | 15.8 | 8.2 | 11.9 | 5.99 | 9.81 | 12.5 | 11 | 11 | 203 | 338 | 697 | 713 | 1420 | 1160 | 134 | 131 | 246 | 543 | 219 | 198 | 263 | 132 | 333
